From patent US20240384350A1, “METHODS OF TREATING CANCER WITH KINASE INHIBITORS” (BOARD OF REGENTS, THE UNIVERSITY OF TEXAS SYSTEM, priority 2021, published 2024)

Key:
Assay in all cases: Ba/F3 drug screening, Cell Titer Glo, IC50 Mut/WT
Format in all cases: cell-based
EGFR L833V = target: T1, EGFR L833V (Homo sapiens, UniProt P00533, L833V); conditions: Classical-Like, 72 hours
T1 construct: expressed in transfected cells; host or cells: Ba/F3 cells, retroviral pBabe-Puro vector

EGFR L861R = target: T2, EGFR L861R (Homo sapiens, UniProt P00533, L861R); conditions: Classical-Like, 72 hours
T2 construct: expressed in transfected cells; host or cells: Ba/F3 cells, retroviral pBabe-Puro vector (vector made by GeneScript from EGFR WT)

EGFR A763insLQEA = target: T3, EGFR A763insLQEA (Homo sapiens, UniProt P00533, INS763LQEA); conditions: Classical-Like, 72 hours
T3 construct: expressed in transfected cells; host or cells: Ba/F3 cells, retroviral pBabe-Puro vector

EGFR D761N = target: T4, EGFR D761N (Homo sapiens, UniProt P00533, D761N); conditions: Classical-Like, 72 hours
T4 construct: expressed in transfected cells; host or cells: Ba/F3 cells, retroviral pBabe-Puro vector

EGFR N771dupN G724S = target: T5, EGFR N771dupN G724S (Homo sapiens, UniProt P00533, DUP771-771/G724S); conditions: Ex20, 72 hours
T5 construct: expressed in transfected cells; host or cells: Ba/F3 cells, retroviral pBabe-Puro vector (vector made by GeneScript from EGFR G724S, c.2313_2314insAAC)

EGFR T790M = target: T6, EGFR T790M (Homo sapiens, UniProt P00533, T790M); conditions: T790M-like-3S, 72 hours
T6 construct: expressed in transfected cells; host or cells: Ba/F3

EGFR Ex19del T790M = target: T7, EGFR Ex19del T790M (Homo sapiens, UniProt P00533, DEL746-750/T790M); conditions: T790M-like-3S, 72 hours
T7 construct: expressed in transfected cells; host or cells: Ba/F3

EGFR L858R T790M L792H = target: T8, EGFR L858R T790M L792H (Homo sapiens, UniProt P00533, L792H/L858R/T790M); conditions: T790M-like-3S, 72 hours
T8 construct: expressed in transfected cells; host or cells: Ba/F3

EGFR Ex19del T790M L718V = target: T9, EGFR Ex19del T790M L718V (Homo sapiens, UniProt P00533, DEL746-750/L718V/T790M); conditions: T790M-like-3S, 72 hours
T9 construct: expressed in transfected cells; host or cells: Ba/F3

EGFR L858R/T790M/L718Q = target: T10, EGFR L858R/T790M/L718Q (Homo sapiens, UniProt P00533, L718Q/L858R/T790M); conditions: T790M-like-3R, 72 hours
T10 construct: expressed in transfected cells; host or cells: Ba/F3

EGFR L858R T790M L718V = target: T11, EGFR L858R T790M L718V (Homo sapiens, UniProt P00533, L718V/L858R/T790M); conditions: T790M-like-3R, 72 hours
T11 construct: expressed in transfected cells; host or cells: Ba/F3
Experimental: Data represent the ratio of the IC50 value for a given TKI for cells with a T790M-like-3R EGFR mutation to the IC50 value for cells with wildtype EGFR.
(§1) Ba/F3 cell generation, drug screening, and IC50 approximations. Ba/F3 cells were obtained as a gift from Dr. Gordon Mills (MD Anderson Cancer Center), and maintained in RPMI (Sigma) containing 10% FBS, 1% penicillin/streptomycin, and 10 ng/ml recombinant mIL-3 (R&D Biosystems). To establish stable Ba/F3 cell lines, Ba/F3 cells were transduced with retroviruses containing mutant EGFR plasmids for 12-24 hours.
After 48-72 hours of transduction, 2 μg/ml puromycin (Invitrogen) was added to Ba/F3 cell lines in complete RPMI. To select for EGFR positive cell lines, cells were stained with PE-EGFR (Biolegend) and sorted by FACS. After sorting, EGFR positive cells were maintained in RPMI containing 10% FBS, 1% penicillin/streptomycin, and 1 ng/ml EGF to support cell viability. […] Shortly, cells were plated in 384-well plates (Greiner Bio-One) at 2000-3000 cells per well in technical triplicate. Seven different concentrations of TKIs or DMSO vehicle were added to reach a final volume of 40 μL per well. After 72 hours, 11 μL of Cell Titer Glo (Promega) was added to each well. Plates were incubated for a minimum of 10 minutes, and bioluminescence was determined using a FLUOstar OPTIMA plate reader (BMG LABTECH). Raw bioluminescence values were normalized to DMSO control treated cells, and values were plotted in GraphPad Prism. […] Drug screens were performed in technical triplicate on each plate and either duplicate or triplicate biological replicates. […] Statistical differences between groups were determined by ANOVA as described in the figure legends.

EGFR E709K = target: T12, EGFR E709K (Homo sapiens, UniProt P00533, E709K); conditions: Ba/F3 cells, EGFR E709K (PACC), Mut/WT
T12 construct: expressed in transfected cells; host or cells: Ba/F3

EGFR L718Q = target: T13, EGFR L718Q (Homo sapiens, UniProt P00533, L718Q); conditions: Ba/F3 cells, EGFR L718Q (PACC), Mut/WT
T13 construct: expressed in transfected cells; host or cells: Ba/F3

EGFR G719A = target: T14, EGFR G719A (Homo sapiens, UniProt P00533, G719A); conditions: Ba/F3 cells, EGFR G719A (PACC), Mut/WT
T14 construct: expressed in transfected cells; host or cells: Ba/F3
Experimental: (§2) Data represent the ratio of the IC50 value for a given TKI for cells with a PACC EGFR mutation to the IC50 value for cells with wildtype EGFR.
as §1
(§3) After 48-72 hours of transduction, 2 μg/ml puromycin (Invitrogen) was added to Ba/F3 cell lines in complete RPMI. To select for EGFR positive cell lines, cells were stained with PE-EGFR (Biolegend) and sorted by FACS. After sorting, EGFR positive cells were maintained in RPMI containing 10% FBS, 1% penicillin/streptomycin, and 1 ng/ml EGF to support cell viability. Drug screening was performed as previously described^41,42. Shortly, cells were plated in 384-well plates (Greiner Bio-One) at 2000-3000 cells per well in technical triplicate. Seven different concentrations of TKIs or DMSO vehicle were added to reach a final volume of 40 μL per well. After 72 hours, 11 μL of Cell Titer Glo (Promega) was added to each well. Plates were incubated for a minimum of 10 minutes, and bioluminescence was determined using a FLUOstar OPTIMA plate reader (BMG LABTECH). Raw bioluminescence values were normalized to DMSO control treated cells, and values were plotted in GraphPad Prism. […] Drug screens were performed in technical triplicate on each plate and either duplicate or triplicate biological replicates.

EGFR G719A L861Q = target: T15, EGFR G719A L861Q (Homo sapiens, UniProt P00533, G719A/L861Q); conditions: Ba/F3 cells, EGFR G719A L861Q (PACC), Mut/WT
T15 construct: expressed in transfected cells; host or cells: Ba/F3
Experimental: as §2, §1, §3

EGFR I740dupIPVAK = conditions: Ba/F3 cells, EGFR I740dupIPVAK (PACC), Mut/WT
Experimental: as §2, §1, §3

EGFR L747P = target: T16, EGFR L747P (Homo sapiens, UniProt P00533, L747P); conditions: Ba/F3 cells, EGFR L747P (PACC), Mut/WT
T16 construct: expressed in transfected cells; host or cells: Ba/F3

EGFR L747S = target: T17, EGFR L747S (Homo sapiens, UniProt P00533, L747S); conditions: Ba/F3 cells, EGFR L747S (PACC), Mut/WT
T17 construct: expressed in transfected cells; host or cells: Ba/F3
Experimental: as §2, §1, §3

EGFR S768I/V769L = target: T18, EGFR S768I/V769L (Homo sapiens, UniProt P00533, S768I/V769L); conditions: Ba/F3 cells, EGFR S768I/V769L (PACC), Mut/WT
T18 construct: host or cells: Ba/F3
Experimental: as §2, §1, §3

EGFR R776H = target: T19, EGFR R776H (Homo sapiens, UniProt P00533, R776H); conditions: Ba/F3 cells, EGFR R776H (PACC), Mut/WT
T19 construct: host or cells: Ba/F3

EGFR L858R/L718V = target: T20, EGFR L858R/L718V (Homo sapiens, UniProt P00533, L718V/L858R); conditions: Ba/F3 cells, EGFR L858R/L718V (PACC), Mut/WT
T20 construct: host or cells: Ba/F3

EGFR L858R/L792H = target: T21, EGFR L858R/L792H (Homo sapiens, UniProt P00533, L792H/L858R); conditions: Ba/F3 cells, EGFR L858R/L792H (PACC), Mut/WT
T21 construct: expressed in transfected cells; host or cells: Ba/F3
Experimental: as §2, §1, §3

EGFR Ex19del G796S = target: T22, EGFR Ex19del G796S (Homo sapiens, UniProt P00533, DEL746-750/G796S); conditions: Ba/F3 cells, EGFR Ex19del G796S (PACC), Mut/WT
T22 construct: expressed in transfected cells; host or cells: Ba/F3

EGFR Ex19del L718Q = target: T23, EGFR Ex19del L718Q (Homo sapiens, UniProt P00533, DEL746-750/L718Q); conditions: Ba/F3 cells, EGFR Ex19del L718Q (PACC), Mut/WT
T23 construct: expressed in transfected cells; host or cells: Ba/F3
Experimental: as §2, §1, §3

ratio of IC50 for cells with mutant EGFR to IC50 for cells with wildtype EGFR (Mut/WT) (EGFR L833V)	ratio of IC50 for cells with mutant EGFR to IC50 for cells with wildtype EGFR (Mut/WT) (EGFR L861R)	ratio of IC50 for cells with mutant EGFR to IC50 for cells with wildtype EGFR (Mut/WT) (EGFR A763insLQEA)	ratio of IC50 for cells with mutant EGFR to IC50 for cells with wildtype EGFR (Mut/WT) (EGFR D761N)	ratio of IC50 for cells with mutant EGFR to IC50 for cells with wildtype EGFR (Mut/WT) (EGFR N771dupN G724S)	ratio of IC50 for cells with mutant EGFR to IC50 for cells with wildtype EGFR (Mut/WT) (EGFR T790M)	ratio of IC50 for cells with mutant EGFR to IC50 for cells with wildtype EGFR (Mut/WT) (EGFR Ex19del T790M)	ratio of IC50 for cells with mutant EGFR to IC50 for cells with wildtype EGFR (Mut/WT) (EGFR L858R T790M L792H)	ratio of IC50 for cells with mutant EGFR to IC50 for cells with wildtype EGFR (Mut/WT) (EGFR Ex19del T790M L718V)	ratio of IC50 for cells with mutant EGFR to IC50 for cells with wildtype EGFR (Mut/WT) (EGFR L858R/T790M/L718Q)	ratio of IC50 for cells with mutant EGFR to IC50 for cells with wildtype EGFR (Mut/WT) (EGFR L858R T790M L718V)	ratio of the IC50 value for cells with a PACC EGFR mutation to the IC50 value for cells with wildtype EGFR (EGFR E709K)	ratio of the IC50 value for cells with a PACC EGFR mutation to the IC50 value for cells with wildtype EGFR (EGFR L718Q)	ratio of the IC50 value for cells with a PACC EGFR mutation to the IC50 value for cells with wildtype EGFR (EGFR G719A)	ratio of the IC50 value for cells with a PACC EGFR mutation to the IC50 value for cells with wildtype EGFR (EGFR G719A L861Q)	ratio of the IC50 value for cells with a PACC EGFR mutation to the IC50 value for cells with wildtype EGFR (EGFR I740dupIPVAK)	ratio of the IC50 value for cells with a PACC EGFR mutation to the IC50 value for cells with wildtype EGFR (EGFR L747P)	ratio of the IC50 value for cells with a PACC EGFR mutation to the IC50 value for cells with wildtype EGFR (EGFR L747S)	ratio of the IC50 value for cells with a PACC EGFR mutation to the IC50 value for cells with wildtype EGFR (EGFR S768I/V769L)	ratio of the IC50 value for cells with a PACC EGFR mutation to the IC50 value for cells with wildtype EGFR (EGFR R776H)	also measured	Structure (SMILES)
0.002739	0.01121	0.05507	0.0009686	0.3384	0.1166	0.01265	0.02884	0.2594	0.7714	0.6592	0.0309	1.245	0.06775	0.06344	0.1352	0.2221	0.06302	0.2253	0.03601	ratio of the IC50 value for cells with a PACC EGFR mutation to the IC50 value for cells with wildtype EGFR (EGFR L858R/L718V): 1.03; ratio of the IC50 value for cells with a PACC EGFR mutation to the IC50 value for cells with wildtype EGFR (EGFR L858R/L792H): 0.3145; ratio of the IC50 value for cells with a PACC EGFR mutation to the IC50 value for cells with wildtype EGFR (EGFR Ex19del G796S): 0.6604; ratio of the IC50 value for cells with a PACC EGFR mutation to the IC50 value for cells with wildtype EGFR (EGFR Ex19del L718Q): 0.03801	Cc1cc(C(=O)Nc2nc3cccc(Cl)c3n2[C@@H]2CCCCN(C(=O)/C=C/CN(C)C)C2)ccn1 [Nazartinib]
0.03803	0.02937	0.07483	0.1654	0.4165	0.04611	0.0004059	0.004757	0.02165	0.6196	0.8754	0.05562	3.977	0.141	0.07388	0.1715	0.3924	0.06291	0.3582	0.1146	ratio of the IC50 value for cells with a PACC EGFR mutation to the IC50 value for cells with wildtype EGFR (EGFR L858R/L718V): 0.8629; ratio of the IC50 value for cells with a PACC EGFR mutation to the IC50 value for cells with wildtype EGFR (EGFR L858R/L792H): 0.1405; ratio of the IC50 value for cells with a PACC EGFR mutation to the IC50 value for cells with wildtype EGFR (EGFR Ex19del G796S): 0.8234; ratio of the IC50 value for cells with a PACC EGFR mutation to the IC50 value for cells with wildtype EGFR (EGFR Ex19del L718Q): 0.03389	C=CC(=O)Nc1cccc(Oc2nc(Nc3ccc(N4CCN(C)CC4)cc3)nc3ccsc23)c1 [Olmutinib]
0.1367	0.3102	0.03374	0.363	1.553	1.315	0.2391	3.326	3.032	149.2	5.796	10.68	16.38	1.676	1.066	7.185	5.991	2.299	0.04994	2.853	ratio of the IC50 value for cells with a PACC EGFR mutation to the IC50 value for cells with wildtype EGFR (EGFR L858R/L718V): 3.491; ratio of the IC50 value for cells with a PACC EGFR mutation to the IC50 value for cells with wildtype EGFR (EGFR L858R/L792H): 0.0457; ratio of the IC50 value for cells with a PACC EGFR mutation to the IC50 value for cells with wildtype EGFR (EGFR Ex19del G796S): 32.48; ratio of the IC50 value for cells with a PACC EGFR mutation to the IC50 value for cells with wildtype EGFR (EGFR Ex19del L718Q): 1.286	C=CC(=O)Nc1cc(Nc2ncc(C(=O)OC(C)C)c(-c3cn(C)c4ccccc34)n2)c(OC)cc1N(C)CCN(C)C [TAK-788 (mobocertinib), mobocertinib]
